In ChEMBL document CHEMBL4346712, “Research progress in the biological activities of 3,4,5-trimethoxycinnamic acid (TMCA) derivatives” (Eur J Med Chem, 2019):
In brackets after ≈: the same amount, converted by molar mass. Blank lines part the entries; values can stand above or below the molecule they belong to.

What was measured:
[1] = target: Sodium-dependent serotonin transporter (Homo sapiens, UniProt P31645); test: Displacement of [3H]Imipramine from human 5-HT transporter expressed in HEK-293 cell membranes after 30 mins
Chain of Sodium-dependent serotonin transporter (P31645 whole entry): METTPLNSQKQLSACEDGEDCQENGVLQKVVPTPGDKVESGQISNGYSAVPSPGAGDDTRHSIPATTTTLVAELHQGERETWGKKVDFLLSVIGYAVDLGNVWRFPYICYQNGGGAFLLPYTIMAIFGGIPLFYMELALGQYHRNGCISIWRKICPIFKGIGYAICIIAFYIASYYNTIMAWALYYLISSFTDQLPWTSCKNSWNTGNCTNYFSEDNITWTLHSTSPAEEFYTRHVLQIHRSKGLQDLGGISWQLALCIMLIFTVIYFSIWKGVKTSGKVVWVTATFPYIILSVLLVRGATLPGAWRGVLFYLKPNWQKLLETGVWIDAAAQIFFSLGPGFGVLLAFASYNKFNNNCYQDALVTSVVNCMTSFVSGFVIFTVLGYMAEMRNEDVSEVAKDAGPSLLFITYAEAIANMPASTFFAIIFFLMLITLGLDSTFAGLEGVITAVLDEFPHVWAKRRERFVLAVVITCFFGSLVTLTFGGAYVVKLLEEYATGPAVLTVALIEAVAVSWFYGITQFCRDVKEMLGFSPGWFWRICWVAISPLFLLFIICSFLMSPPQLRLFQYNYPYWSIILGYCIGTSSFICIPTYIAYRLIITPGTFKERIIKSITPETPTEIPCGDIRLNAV

Mus musculus = test: Antinarcotic activity in morphine-dependent C57BL/6 mouse assessed as inhibition of naloxone-induced jumping behavior in mouse at 5 mg/kg , ip after 30 mins relative to control; format: functional; settings: C57BL/6, ip, 0.5 h
Platelet [2] = test: Antiplatelet activity in rabbit platelet rich plasma assessed as inhibition of ADP-induced platelet aggregation at 30 ug/ml relative to control; format: functional; settings: Oryctolagus cuniculus
Platelet [3] = test: Antiplatelet activity in rabbit platelet rich plasma assessed as inhibition of PAF-induced platelet aggregation at 50 ug/ml relative to control; format: functional; settings: Oryctolagus cuniculus
[4] = target: Platelet-activating factor receptor (Homo sapiens) (UniProt P25105); test: Inhibition of PAF receptor (unknown origin) assessed as reduction in receptor to rabbit platelet binding at 20 ug/ml relative to control
Chain of Platelet-activating factor receptor (Homo sapiens) (P25105 whole entry): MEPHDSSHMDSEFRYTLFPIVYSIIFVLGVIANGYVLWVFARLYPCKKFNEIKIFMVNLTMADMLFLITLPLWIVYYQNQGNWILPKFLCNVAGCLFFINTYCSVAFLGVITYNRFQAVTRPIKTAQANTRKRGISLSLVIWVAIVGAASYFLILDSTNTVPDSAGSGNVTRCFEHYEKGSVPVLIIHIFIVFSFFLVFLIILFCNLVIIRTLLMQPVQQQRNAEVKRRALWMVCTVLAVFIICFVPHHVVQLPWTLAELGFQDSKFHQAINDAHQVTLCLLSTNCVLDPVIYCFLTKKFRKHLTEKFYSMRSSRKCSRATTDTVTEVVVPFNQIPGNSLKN

Platelet [5] = test: Antiplatelet activity in rabbit platelet rich plasma assessed as inhibition of collagen-induced platelet aggregation at 300 uM preincubated for 3 mins followed by collagen addition measured after 10 mins relative to control; format: functional; settings: Oryctolagus cuniculus
Platelet [6] = test: Antiplatelet activity in rabbit platelet rich plasma assessed as inhibition of arachidonic acid-induced platelet aggregation at 300 uM preincubated for 3 mins followed by arachidonic acid addition measured after 10 mins relative to control; format: functional; settings: Oryctolagus cuniculus
Platelet [7] = test: Antiplatelet activity in rabbit platelet rich plasma assessed as inhibition of PAF-induced platelet aggregation at 300 uM preincubated for 3 mins followed by PAF addition measured after 10 mins relative to control; format: functional; settings: Oryctolagus cuniculus
Platelet [8] = test: Antiplatelet activity in rabbit platelet rich plasma assessed as inhibition of arachidonic acid-induced platelet aggregation at 150 uM preincubated for 3 mins followed by arachidonic acid addition measured after 10 mins relative to control; format: functional; settings: Oryctolagus cuniculus
Platelet [9] = test: Antiplatelet activity in rabbit platelet rich plasma assessed as inhibition of PAF-induced platelet aggregation at 150 uM preincubated for 3 mins followed by PAF addition measured after 10 mins relative to control; format: functional; settings: Oryctolagus cuniculus
[10] = target: 5-hydroxytryptamine receptor 1A (Homo sapiens, UniProt P08908); test: Displacement of [3H]8-OH-DPAT from 5-HT1A receptor (unknown origin) expressed in CHO-K1 cell membranes after 60 mins by microbeta counting method
Chain of 5-hydroxytryptamine receptor 1A (P08908 whole entry): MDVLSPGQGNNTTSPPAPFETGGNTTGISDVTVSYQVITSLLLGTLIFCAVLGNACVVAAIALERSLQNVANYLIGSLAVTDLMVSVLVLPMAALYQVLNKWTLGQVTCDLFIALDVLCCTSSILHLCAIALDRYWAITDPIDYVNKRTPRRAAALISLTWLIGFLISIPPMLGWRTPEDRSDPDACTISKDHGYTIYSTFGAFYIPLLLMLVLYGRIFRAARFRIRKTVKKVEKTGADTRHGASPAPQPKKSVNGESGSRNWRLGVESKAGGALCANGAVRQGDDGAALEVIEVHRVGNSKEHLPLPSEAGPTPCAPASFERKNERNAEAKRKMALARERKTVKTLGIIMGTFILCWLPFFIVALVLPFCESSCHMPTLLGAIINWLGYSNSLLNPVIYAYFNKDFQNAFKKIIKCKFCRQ

Plasmodium falciparum [11] = test: Antiplasmodial activity against blood form of chloroquine-resistant/mefloquine-sensitive Plasmodium falciparum W2 by [3H]-hypoxanthine incorporation method; format: functional, organism-based
Plasmodium falciparum [12] = test: Antiplasmodial activity against blood form of chloroquine-resistant/mefloquine-sensitive Plasmodium falciparum W2 by histidine rich protein assay; format: functional, organism-based
EL4 = test: Antitumor activity against mouse EL4 cells by MTT assay
CPAE = test: Cytotoxic activity against cow CPAE cells by MTT assay; settings: Bos taurus
[13] = target: T1, Bifunctional epoxide hydrolase 2 (Homo sapiens, UniProt P34913); test: Competitive inhibition of soluble epoxide hydrolase (unknown origin)
T1 sequence (P34913 whole entry): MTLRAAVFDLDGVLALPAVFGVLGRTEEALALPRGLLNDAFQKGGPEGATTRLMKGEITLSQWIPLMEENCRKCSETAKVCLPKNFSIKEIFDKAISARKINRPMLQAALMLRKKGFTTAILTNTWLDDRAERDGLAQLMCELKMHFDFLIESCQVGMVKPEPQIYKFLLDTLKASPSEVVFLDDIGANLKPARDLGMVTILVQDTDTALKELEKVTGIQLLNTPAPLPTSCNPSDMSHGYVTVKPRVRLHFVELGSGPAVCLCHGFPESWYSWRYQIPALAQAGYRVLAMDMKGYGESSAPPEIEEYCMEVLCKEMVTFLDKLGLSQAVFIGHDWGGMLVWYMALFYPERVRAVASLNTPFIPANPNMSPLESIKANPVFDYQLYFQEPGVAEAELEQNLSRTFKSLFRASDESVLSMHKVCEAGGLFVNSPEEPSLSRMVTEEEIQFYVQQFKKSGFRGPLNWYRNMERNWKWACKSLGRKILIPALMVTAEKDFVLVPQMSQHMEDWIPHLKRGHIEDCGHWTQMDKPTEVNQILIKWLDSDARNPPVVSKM

[14] = target: T2, Bifunctional epoxide hydrolase 2 (Homo sapiens) (UniProt P34913); test: Competitive inhibition of soluble epoxide hydrolase (unknown origin) at 100 uM relative to control
T2 sequence (whole entry): T1 sequence (P34913 whole entry)

HepG2 2.2.15 = test: Cytotoxicity against human HepG2(2.2.15) cells after 24 hrs by MTT assay; format: functional; settings: HepG2 2.2.15, 24 h
Hepatitis B virus [15] = test: Antiviral activity against Hepatitis B virus infected in human HepG2.2.15 cells assessed as reduction in HBsAg secretion by ELISA; format: functional, organism-based
Hepatitis B virus [16] = test: Antiviral activity against Hepatitis B virus infected in human HepG2.2.15 cells assessed as reduction in HBeAg secretion by ELISA; format: functional, organism-based
Candida albicans = test: Antifungal activity against Candida albicans ATCC 10231 after 24 hrs by CLSI broth microdilution method; format: functional, organism-based; settings: ATCC 10231, 24 h
Pichia kudriavzevii = test: Antifungal activity against Candida krusei ATCC 6258 after 24 hrs by CLSI broth microdilution method; format: functional, organism-based; settings: ATCC 6258, 24 h
Nakaseomyces glabratus = test: Antifungal activity against Candida glabrata ATCC 90030 after 24 hrs by CLSI broth microdilution method; format: functional, organism-based; settings: ATCC 90030, 24 h
Candida parapsilosis = test: Antifungal activity against Candida parapsilosis ATCC 22019 after 24 hrs by CLSI broth microdilution method; format: functional, organism-based; settings: Lodderomyces parapsilosis, ATCC 22019, 24 h
Staphylococcus aureus = test: Antibacterial activity against Staphylococcus aureus ATCC 6538 after 24 hrs by CLSI broth microdilution method; format: functional, organism-based; settings: ATCC 6538, 24 h
[17] = Cytotoxicity against BHK21 cells assessed as reduction in cell viability after 48 hrs by MTT assay; format: cell-based, Mesocricetus auratus, BHK-21; settings: hamster
Platelet [18] = test: Antiplatelet activity in rabbit platelet rich plasma assessed as inhibition of thrombin-induced platelet aggregation at 300 uM preincubated for 3 mins followed by thrombin addition measured after 10 mins relative to control; format: functional; settings: Oryctolagus cuniculus
[19] = Selectivity index, ratio of CC50 for BHK21 cells to IC50 for Candida albicans ATCC 10231; format: toxicity; settings: hamster, read-out: Ratio CC50/IC50
[20] = Selectivity index, ratio of CC50 for BHK21 cells to IC50 for Candida krusei ATCC 6258; format: toxicity; settings: hamster, read-out: Ratio CC50/IC50
[21] = Selectivity index, ratio of CC50 for BHK21 cells to IC50 for Candida glabrata ATCC 90030; format: toxicity; settings: hamster, read-out: Ratio CC50/IC50
[22] = Selectivity index, ratio of CC50 for BHK21 cells to IC50 for Candida parapsilosis ATCC 22019; format: toxicity; settings: hamster, read-out: Ratio CC50/IC50
[23] = Selectivity index, ratio of CC50 for BHK21 cells to IC50 for Staphylococcus aureus ATCC 6538; format: toxicity; settings: hamster, read-out: Ratio CC50/IC50
Platelet [24] = test: Antiplatelet activity in rabbit platelet rich plasma assessed as inhibition of collagen-induced platelet aggregation at 150 uM preincubated for 3 mins followed by collagen addition measured after 10 mins relative to control; format: functional; settings: Oryctolagus cuniculus
Candida tropicalis = test: Antifungal activity against Candida tropicalis ATCC 750 after 24 hrs by CLSI broth microdilution method; format: functional, organism-based; settings: ATCC 750, 24 h
[25] = Selectivity index, ratio of CC50 for BHK21 cells to IC50 for Candida tropicalis ATCC 750; format: toxicity; settings: hamster, read-out: Ratio CC50/IC50
[26] = Growth inhibition of HUVEC at 5 uM relative to control; format: cell-based; settings: human, HUVEC cells; read-out: GI
[27] = Growth inhibition of HUVEC; format: cell-based; settings: human, HUVEC cells

SMILES: CCCCCCCCNC(=O)/C=C/c1cc(OC)c(OC)c(OC)c1
- IC50 [1]: > 10 µM
- inhibition in vivo at 5 mg/kg (Mus musculus): 88%

SMILES: COc1ccc(CCNC(=O)/C=C/c2cc(OC)c(OC)c(OC)c2)cc1
- inhibition at 30 µg/mL (Platelet [2]): 29.1%
- inhibition at 50 µg/mL (Platelet [3]): 39.3%
- inhibition [4]: 19%

SMILES: CC(=O)Oc1ccccc1C(=O)O [ASPIRIN]
- inhibition at 300 µM (Platelet [5]): 5.8%
- inhibition at 300 µM (Platelet [6]): 100%
- inhibition at 300 µM (Platelet [7]): 0.3%
- inhibition at 150 µM (Platelet [8]): 75%
- inhibition at 150 µM (Platelet [9]): 0.3%

- IC50 [10]: 9.4 µM
SMILES: COc1cc(/C=C/C(=O)Oc2ccccc2)cc(OC)c1OC

SMILES: COc1cc(/C=C/C(=O)OCC(=O)c2ccc(Cl)cc2)cc(OC)c1OC
- IC50 (Plasmodium falciparum [11]): 128 µM
- IC50 (Plasmodium falciparum [12]): 128 µM

SMILES: COc1cc(/C=C/C(=O)O[C@@H]2CC[C@]3(CO3)[C@@H]([C@@]3(C)O[C@@H]3CC=C(C)C)[C@@H]2OC)cc(OC)c1OC
- IC50 (EL4): 0.15 µg/mL (≈ 0.298 µM)
- IC50 (CPAE): 0.03 µg/mL (≈ 0.0597 µM)

- IC50 [13]: 18 µM
- inhibition [14]: > 100%
SMILES: COc1cc(/C=C/C(=O)O[C@H]2[C@H](O)[C@@H](CO)O[C@]2(CO)O[C@H]2O[C@H](CO)[C@@H](OC(=O)c3ccccc3)[C@H](O)[C@H]2O)cc(OC)c1OC

SMILES: COc1cc(/C=C/C(=O)ON=C2C3CC4CC(C3)CC2C4)cc(OC)c1OC
- CC50 (HepG2 2.2.15): 507 µM
- IC50 (Hepatitis B virus [15]): 107 µM
- IC50 (Hepatitis B virus [16]): 74.8 µM

SMILES: COc1cc(/C=C/C(=O)N2CCC=CC2=O)cc(OC)c1OC [PIPLARTINE]
- IC50 (Candida albicans): 94.6 µM
- IC50 (Pichia kudriavzevii): 189 µM
- IC50 (Nakaseomyces glabratus): 189 µM
- IC50 (Candida parapsilosis): 94.6 µM
- IC50 (Staphylococcus aureus): 315 µM
- CC50 at 48 h [17]: 40.1 µM
- inhibition at 300 µM (Platelet [5]): 100%
- inhibition at 300 µM (Platelet [6]): 100%
- inhibition at 300 µM (Platelet [7]): 100%
- inhibition at 300 µM (Platelet [18]): 23.5%
- selectivity ratio [19]: 0.42
- selectivity ratio [20]: 0.21
- selectivity ratio [21]: 0.21
- selectivity ratio [22]: 0.42
- selectivity ratio [23]: 0.12
- inhibition at 150 µM (Platelet [24]): 100%
- inhibition at 150 µM (Platelet [8]): 76.4%
- inhibition at 150 µM (Platelet [9]): 100%

SMILES: COc1cc(/C=C/C(=O)N2CCOCC2)cc(OC)c1OC
- IC50 (Candida tropicalis): 97.7 µM
- IC50 (Pichia kudriavzevii): 48.8 µM
- CC50 at 48 h [17]: 186 µM
- selectivity ratio [25]: 1.89
- selectivity ratio [20]: 3.79

SMILES: COc1cc(/C=C/C(=O)Nc2ccc(NC(=O)[C@@H](O)[C@H](N)Cc3ccccc3)cc2)cc(OC)c1OC
- inhibition at 5 µM [26]: 93%

SMILES: COc1cc(/C=C/C(=O)Nc2ccc(NC(=O)[C@@H](O)[C@H](N)CC3CCCCC3)cc2)cc(OC)c1OC
- GI50 [27]: 0.67 µM
- inhibition at 5 µM [26]: > 98%
